Assays:
[1] = Adjuvant induced arthritis in rats (Freund's adjuvant); type: in vivo, Royal Hart, Wistar strain rats; settings: for Dead/Treated At 21 Days: days 0-13
Description: Groups of three Royal Hart, Wistar strain rats weighing 200±10 grams each were injected intradermally in the right hind paw with Freund's adjuvant (dried human tubercle bacilli in a mineral oil vehicle) at a dose of 2 mg./kg. of body weight. Test compound was administered orally in a 1.5% starch vehicle at various doses once daily on days 0 through 13 post challenge. Control rats were treated in a similar manner, but given only starch vehicle. On the 14th and 21st day post challenge the diameter of the injected paw (primary lesion) was measured by micrometer caliper. The volume of inflamed paws were estimated from these measurements and the results are expressed as percent inhibition of swelling as compared to controls. At the same time, the other inflamed sites, such as ears, paws and tail (seconday lesions) were observed and each rat was graded as to degree of inflammation and swelling present. The grading is based on a scale of 0 to 24, where 0 represents a complete absence of induced arthritic nodules and 24 represents the maximum degree of inflammation. The mean grade for each treated group is calculated and the effects of each compound are expressed as percent inhibition of the control grade. Table I records the results of tests conducted with a typical compound of the present invention and known anti-inflammatory agents.

[2] = Ultraviolet induced erythema in guinea pigs; type: in vivo, Albino guinea pigs; settings: maximum 3.0
Description: Albino guinea pigs were depilitated on their flanks, the evening before testing, with a standard mixture of barium sulfide and gum acacia. On the morning of the test, groups of four guinea pigs were dosed by gavage one hour prior (-1 hour) to ultraviolet exposure. At 0 hour they were restrained in a plastic container which allows exposure of 3 circular spots. They were then exposed to ultraviolet irradiation from a "Hanovia" Kromayer lamp, model 10, for 60 seconds. At one and four hours, the degree of erythema for each of the three sites was assessed according to the following scoring system: 0= no erythema, 0.5=incomplete circle or faint erythema, and 1.0=complete circle of distinct erythema. Thus, the maximum score for each animal was 3.0.

[3] = Carrageenin induced paw edema in rats (acute anti-inflammatory activity); type: in vivo, Royal Hart, Wistar strain rats; settings: 250 mg./kg. by gavage; 5 hours after drug (4 hours after carrageenin); ratio greater than 1.41 is active
Description: In determining the acute anti-inflammatory activity of the cis-2-benzoyl-3-hydroxy-2-alkenonitriles of the present invention, Royal Hart, Wistar strain rats, ranging in weight from 80 to 90 grams were used. The rats were fasted overnight prior to dosing but had free access to water. The test compounds were administered in aqueous suspension, by gavage, in a volume of 1.7 ml. per 50 grams of rat [corresponds to hydration volume used by Winter, et al., Proc. Soc. […] The phlogistic agent used was carrageenin prepared as a sterile 1% suspension in 0.9% aqueous sodium chloride for routine testing. A volume of 0.05 ml. was injected through a 26 gauge needle into the plantar tissue of the right hind paw. Measurements were made 5 hours after drug administration (4 hours after carrageenin challenge). Volumes of both the normal and carrageenin inflammed feet were determined. The difference between the two measurements is considered to be the increased edema due to the carrageenin administration.

[4] = S. Wong et al. (1973); G. R. Bobalick et al. (1974); cited from earlier work

SMILES: COc1ccc2c(c1)c(CC(=O)O)c(C)n2C(=O)c1ccc(Cl)cc1 [Indomethacin]
- % Inhibition of Control Grade (secondary lesion) ([1]; oral 0.25 mg./kg., Day 14): 22%
- % Inhibition of Swelling (primary lesion) ([1]; oral 0.25 mg./kg., Day 14): 30%
- Mean Weight Gain ([1]; oral 0.25 mg./kg., Day 14): 51 grams
- % Inhibition of Control Grade (secondary lesion) ([1]; oral 0.25 mg./kg., Day 21): 4%
- % Inhibition of Swelling (primary lesion) ([1]; oral 0.25 mg./kg., Day 21): 4%
- Mean Weight Gain ([1]; oral 0.25 mg./kg., Day 21): 57 grams
- Dead/Treated At 21 Days ([1]; oral 0.25 mg./kg.): 0/9
- % Inhibition of Control Grade (secondary lesion) ([1]; oral 0.5 mg./kg., Day 14): 25%
- % Inhibition of Swelling (primary lesion) ([1]; oral 0.5 mg./kg., Day 14): 40%
- Mean Weight Gain ([1]; oral 0.5 mg./kg., Day 14): 53 grams
- % Inhibition of Control Grade (secondary lesion) ([1]; oral 0.5 mg./kg., Day 21): 17%
- % Inhibition of Swelling (primary lesion) ([1]; oral 0.5 mg./kg., Day 21): 20%
- Mean Weight Gain ([1]; oral 0.5 mg./kg., Day 21): 51 grams
- Dead/Treated At 21 Days ([1]; oral 0.5 mg./kg.): 5/54
- % Inhibition of Control Grade (secondary lesion) ([1]; oral 1 mg./kg., Day 14): 34%
- % Inhibition of Swelling (primary lesion) ([1]; oral 1 mg./kg., Day 14): 46%
- Mean Weight Gain ([1]; oral 1 mg./kg., Day 14): 63 grams
- % Inhibition of Control Grade (secondary lesion) ([1]; oral 1 mg./kg., Day 21): 20%
- % Inhibition of Swelling (primary lesion) ([1]; oral 1 mg./kg., Day 21): 19%
- Mean Weight Gain ([1]; oral 1 mg./kg., Day 21): 65 grams
- Dead/Treated At 21 Days ([1]; oral 1 mg./kg.): 9/54
- % Inhibition of Control Grade (secondary lesion) ([1]; oral 2 mg./kg., Day 14): 38%
- % Inhibition of Swelling (primary lesion) ([1]; oral 2 mg./kg., Day 14): 51%
- Mean Weight Gain ([1]; oral 2 mg./kg., Day 14): 68 grams
- % Inhibition of Control Grade (secondary lesion) ([1]; oral 2 mg./kg., Day 21): 25%
- % Inhibition of Swelling (primary lesion) ([1]; oral 2 mg./kg., Day 21): 24%
- Mean Weight Gain ([1]; oral 2 mg./kg., Day 21): 68 grams
- Dead/Treated At 21 Days ([1]; oral 2 mg./kg.): 8/57
- Erythema Score (avg.) ([2]; oral 3.9 mg./kg., 1 hour): 1.2
- Erythema Score (avg.) ([2]; oral 3.9 mg./kg., 4 hours): 2.9
- Erythema Score (avg.) ([2]; oral 7.8 mg./kg., 1 hour): 0.6
- Erythema Score (avg.) ([2]; oral 7.8 mg./kg., 4 hours): 2.3
- Erythema Score (avg.) ([2]; oral 15.6 mg./kg., 1 hour): 0
- Erythema Score (avg.) ([2]; oral 15.6 mg./kg., 4 hours): 2.0
- Erythema Score (avg.) ([2]; oral 31.3 mg./kg., 1 hour): 0.1
- Erythema Score (avg.) ([2]; oral 31.3 mg./kg., 4 hours): 1.9
- Erythema Score (avg.) ([2]; oral 62.5 mg./kg., 1 hour): 0
- Erythema Score (avg.) ([2]; oral 62.5 mg./kg., 4 hours): 1.3
- Erythema Score (avg.) ([2]; oral 125 mg./kg., 1 hour): 0
- Erythema Score (avg.) ([2]; oral 125 mg./kg., 4 hours): 1.3
- Erythema Score (avg.) ([2]; oral 250 mg./kg., 1 hour): 0
- Erythema Score (avg.) ([2]; oral 250 mg./kg., 4 hours): 1.0
- C/T Edema Ratio [3]: 2.9
- arthritic paw swelling [4]: inhibit arthritic paw swelling
- joint and bone deterioration [4]: prevent joint and bone deterioration

SMILES: CC(=O)Oc1ccccc1C(=O)O [Aspirin]
- % Inhibition of Control Grade (secondary lesion) ([1]; oral 50 mg./kg., Day 14): 12%
- % Inhibition of Swelling (primary lesion) ([1]; oral 50 mg./kg., Day 14): 23%
- Mean Weight Gain ([1]; oral 50 mg./kg., Day 14): 56 grams
- % Inhibition of Control Grade (secondary lesion) ([1]; oral 50 mg./kg., Day 21): 9%
- % Inhibition of Swelling (primary lesion) ([1]; oral 50 mg./kg., Day 21): 3%
- Mean Weight Gain ([1]; oral 50 mg./kg., Day 21): 44 grams
- Dead/Treated At 21 Days ([1]; oral 50 mg./kg.): 2/21
- % Inhibition of Control Grade (secondary lesion) ([1]; oral 100 mg./kg., Day 14): 19%
- % Inhibition of Swelling (primary lesion) ([1]; oral 100 mg./kg., Day 14): 36%
- Mean Weight Gain ([1]; oral 100 mg./kg., Day 14): 48 grams
- % Inhibition of Control Grade (secondary lesion) ([1]; oral 100 mg./kg., Day 21): 8%
- % Inhibition of Swelling (primary lesion) ([1]; oral 100 mg./kg., Day 21): 13%
- Mean Weight Gain ([1]; oral 100 mg./kg., Day 21): 53 grams
- Dead/Treated At 21 Days ([1]; oral 100 mg./kg.): 18/63
- % Inhibition of Control Grade (secondary lesion) ([1]; oral 200 mg./kg., Day 14): 26%
- % Inhibition of Swelling (primary lesion) ([1]; oral 200 mg./kg., Day 14): 48%
- Mean Weight Gain ([1]; oral 200 mg./kg., Day 14): 40 grams
- % Inhibition of Control Grade (secondary lesion) ([1]; oral 200 mg./kg., Day 21): 17%
- % Inhibition of Swelling (primary lesion) ([1]; oral 200 mg./kg., Day 21): 27%
- Mean Weight Gain ([1]; oral 200 mg./kg., Day 21): 44 grams
- Dead/Treated At 21 Days ([1]; oral 200 mg./kg.): 10/66
- % Inhibition of Control Grade (secondary lesion) ([1]; oral 400 mg./kg., Day 14): 58%
- % Inhibition of Swelling (primary lesion) ([1]; oral 400 mg./kg., Day 14): 73%
- Mean Weight Gain ([1]; oral 400 mg./kg., Day 14): 41 grams
- % Inhibition of Control Grade (secondary lesion) ([1]; oral 400 mg./kg., Day 21): 45%
- % Inhibition of Swelling (primary lesion) ([1]; oral 400 mg./kg., Day 21): 48%
- Mean Weight Gain ([1]; oral 400 mg./kg., Day 21): 55 grams
- Dead/Treated At 21 Days ([1]; oral 400 mg./kg.): 18/57
- Erythema Score (avg.) ([2]; oral 31.3 mg./kg., 1 hour): 1.2
- Erythema Score (avg.) ([2]; oral 31.3 mg./kg., 4 hours): 2.3
- Erythema Score (avg.) ([2]; oral 62.5 mg./kg., 1 hour): 0.8
- Erythema Score (avg.) ([2]; oral 62.5 mg./kg., 4 hours): 2.0
- Erythema Score (avg.) ([2]; oral 125 mg./kg., 1 hour): 0.1
- Erythema Score (avg.) ([2]; oral 125 mg./kg., 4 hours): 2.0
- Erythema Score (avg.) ([2]; oral 250 mg./kg., 1 hour): 0.1
- Erythema Score (avg.) ([2]; oral 250 mg./kg., 4 hours): 1.2
- C/T Edema Ratio [3]: 2.8
